Measured values as given in the NIST ThermoML archive (doi:10.1007/s10765-008-0511-0).
± gives the expanded uncertainty stated by the source.

conditions: Crystal; Heating/Cooling curves

SMILES	Triple point temperature [K]
[N-]=[N+]=O [nitrous oxide]	181.99 ± 1
FC(F)F [trifluoromethane]	118.02 ± 1
O=C=O [carbon dioxide]	216.52 ± 1
